Source: ChEMBL document CHEMBL6121069, “A Medicinal Chemistry Perspective on Protein Tyrosine Phosphatase Nonreceptor Type 2 in Tumor Immunology” (J Med Chem, 2025)
*1 amine or outer side, *2 acyl side, *3 side chain or, on linkers, in order; H or OH if unused. Where a SMILES comes first, the peptide text is derived from it. [ ]: non-standard residue; d: D form. The star is where a group is joined. NHCH2(1,3-C6H4)CH2CO = O=C(Cc1cccc(CN[*:1])c1)[*:2]; F2Pmp = N[C@@H](Cc1ccc(C(F)(F)P(=O)(O)O)cc1)C(=O)O; Phenylacetyl(4-OH,3-OMe) = COc1cc(CC(=O)*)ccc1O; Benzoyl(3-Br,4-Me) = Cc1ccc(C(=O)*)cc1Br; X1 = Cc1ncsc1-c1ccc([C@H](C)N*)cc1; Hyp = O=C(O)[C@@H]1C[C@@H](O)CN1; Tle = CC(C)(C)[C@H](N)C(=O)O

system: B16-F10; experiment: cells; conditions: Mus musculus
Description: Antiproliferative activity against mouse B16-F10 cells

Structure (SMILES)	IC50
O=C1CN(c2c(O)cc3c(c2F)C[C@H](NCCC2CCC2)CC3)S(=O)(=O)N1	< 1000 nM
CC(C)CCN[C@@H]1CNc2cc(O)c(N3CC(=O)NS3(=O)=O)c(F)c2C1	1450 nM
COc1cc(C)nc(NCc2cc(O)c(N3CC(=O)NS3(=O)=O)c(F)c2)c1	50 nM
COc1cc(C)nc(NCc2cc(F)c(N3CC(=O)NS3(=O)=O)c3[nH]ncc23)c1	20 nM
O=C1CN(c2c(O)cc(NC(=O)NC3CCCCC3)cc2F)S(=O)(=O)N1	< 5000 nM
Cc1cc(O)nc(Nc2cc(O)c(N3CC(=O)NS3(=O)=O)c(F)c2)n1	< 5000 nM
CC1CCN=C(Nc2cc(O)c(N3CC(=O)NS3(=O)=O)c(F)c2)N1 (configuration not stated)	5000 nM
CC1Cc2c(cc(O)c(N3CC(=O)NS3(=O)=O)c2F)CCN1 (configuration not stated)	270 nM
O=C1CN(c2c(O)cc3c(c2F)C[C@H](NCCC2CCCC2)CC3)S(=O)(=O)N1	< 50 nM
Cc1ccc(NCc2cc(O)c(N3CC(=O)NS3(=O)=O)c(F)c2)nn1	630 nM
O=C1CN(c2c(O)cc3c(c2F)C[C@H](NCCC(F)F)CC3)S(=O)(=O)N1	1500 nM
Cc1ccnc(NCc2cc(F)c(N3CC(=O)NS3(=O)=O)c3[nH]ncc23)c1	350 nM
O=C1CN(c2c(O)cc3c(c2F)C[C@H](NCCCC(F)(F)F)CC3)S(=O)(=O)N1	< 50 nM
Cc1cnc(Nc2cc(O)c(N3CC(=O)NS3(=O)=O)c(F)c2)nc1O	50000 nM
N[C@@H]1CCc2cc(O)c(N3CC(=O)NS3(=O)=O)c(F)c2CC1	1630 nM
O=C1CN(c2c(O)cc3c(c2F)C[C@H](NCCC2CC2)CC3)S(=O)(=O)N1	220 nM
COc1ccnc(NCc2cc(O)c(N3CC(=O)NS3(=O)=O)c(F)c2)c1	140 nM
CC1(C)CCC(NCc2cc(O)c(N3CC(=O)NS3(=O)=O)c(F)c2)CC1	81000 nM
O=C1CN(c2c(O)cc(NC(=O)N[C@H](CO)c3ccccc3)cc2F)S(=O)(=O)N1 (racemic)	< 5000 nM
CC(C)Cc1cnc(Nc2cc(O)c(N3CC(=O)NS3(=O)=O)c(F)c2)nc1O	5000 nM
CC(C)CCN[C@@H]1C[C@H]2C[C@@H]1c1c2cc(O)c(N2CC(=O)NS2(=O)=O)c1F	7820 nM
CC(C)CCNC(=O)Nc1cc(O)c(N2CC(=O)NS2(=O)=O)c(F)c1	< 5000 nM
Cc1ccnc(Nc2cc(O)c(N3CC(=O)NS3(=O)=O)c(F)c2)n1	≥ 100000 nM
CN(Cc1cc(O)c(N2CC(=O)NS2(=O)=O)c(F)c1)C1CCC(C)(C)CC1	14900 nM
O=C1CN(c2c(O)cc(NC3=NCCCN3)cc2F)S(=O)(=O)N1	< 5000 nM
CCN[C@@H]1CCc2cc(O)c(N3CC(=O)NS3(=O)=O)c(F)c2CC1	54000 nM
COc1cccc(NCc2cc(O)c(N3CC(=O)NS3(=O)=O)c(F)c2)n1	8660 nM
O=C1CN(c2c(O)cc3c(c2F)CCNCC3)S(=O)(=O)N1	350 nM

biological target: Protein cereblon/Tyrosine-protein phosphatase non-receptor type 2 (Homo sapiens, UniProt P17706+Q96SW2); experiment: not given; conditions: hek293t
Sequence (Q96SW2 whole entry, one chain of several): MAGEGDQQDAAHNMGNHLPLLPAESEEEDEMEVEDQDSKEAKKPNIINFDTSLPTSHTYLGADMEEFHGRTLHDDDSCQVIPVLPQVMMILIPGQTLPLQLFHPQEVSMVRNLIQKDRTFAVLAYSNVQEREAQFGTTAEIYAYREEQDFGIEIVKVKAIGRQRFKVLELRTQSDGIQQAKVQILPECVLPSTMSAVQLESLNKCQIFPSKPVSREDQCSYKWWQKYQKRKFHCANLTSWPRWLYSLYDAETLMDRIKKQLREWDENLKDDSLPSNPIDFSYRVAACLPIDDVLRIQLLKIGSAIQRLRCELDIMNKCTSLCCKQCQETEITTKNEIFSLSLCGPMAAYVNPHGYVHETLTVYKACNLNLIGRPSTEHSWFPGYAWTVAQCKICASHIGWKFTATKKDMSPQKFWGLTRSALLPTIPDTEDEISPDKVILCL

DC50	Structure (SMILES)
> 1000 nM	O=C(CCOCCn1cc(C2(Nc3cccc4c3C(=O)N(C3CCC(=O)NC3=O)C4=O)CC2)nn1)NCCOc1ccc2cc(O)c(N3CC(=O)NS3(=O)=O)c(F)c2c1 (configuration not stated)
< 50 nM	Cc1nn(CC(=O)Nc2ccc3c(F)c(N4CC(=O)NS4(=O)=O)c(O)cc3c2)c(C)c1-c1ccc2c(c1)n(C)c(=O)n2C1CCC(=O)NC1=O (configuration not stated)
< 10 nM	Cn1c(=O)n(C2CCC(=O)NC2=O)c2ccc(C3CCN(C(=O)CNc4ccc5c(F)c(N6CC(=O)NS6(=O)=O)c(O)cc5c4)CC3F)cc21 (configuration not stated)
> 1000 nM	Cn1c(=O)n(C2CCC(=O)NC2=O)c2cccc(C3CCN(CCOCCC(=O)NCCOc4ccc5cc(O)c(N6CC(=O)NS6(=O)=O)c(F)c5c4)CC3)c21 (configuration not stated)
10 nM	Cn1c(=O)n(C2CCC(=O)NC2=O)c2cccc(C3CCN(C(=O)c4ccc5c(F)c(N6CC(=O)NS6(=O)=O)c(O)cc5c4)CC3)c21 (configuration not stated)

Structure (SMILES)	DC50
COc1cc(CC(=O)N[C@@H](Cc2ccccc2)C(=O)N[C@@H](Cc2ccc(C(F)(F)P(=O)(O)O)cc2)C(=O)N[C@@H](CCCCNC(=O)c2ccc(C)c(Br)c2)C(=O)NCc2cccc(CC(=O)N[C@H](C(=O)N3C[C@H](O)C[C@H]3C(=O)N[C@@H](C)c3ccc(-c4scnc4C)cc3)C(C)(C)C)c2)ccc1O ({Phenylacetyl(4-OH,3-OMe)}-F[F2Pmp]K(Benzoyl(3-Br,4-Me))[NHCH2(1,3-C6H4)CH2CO][Tle][Hyp]-X1)	4.8 nM

system: B16-F10; experiment: cells; conditions: Mus musculus; remark: another data set of the same source
Description: Antiproliferative activity against mouse B16-F10 cells assessed as inhibition of cell growth

Structure (SMILES)	IC50
O=C1CN(c2c(O)cc(CC3CCNC3)cc2F)S(=O)(=O)N1 (configuration not stated)	7430 nM
O=C1CN(c2c(O)cc(CC3CCCN(CC4CC4)C3)cc2F)S(=O)(=O)N1 (configuration not stated)	> 46400 nM
O=C1CN(c2c(O)cc(CC3CCCNC3)cc2F)S(=O)(=O)N1 (configuration not stated)	25800 nM
O=C1CN(c2c(O)cc(CC3CCN(CC4CC4)C3)cc2F)S(=O)(=O)N1 (configuration not stated)	17400 nM
O=C1CN(c2c(O)cc(CC3CCCCNC3)cc2F)S(=O)(=O)N1 (configuration not stated)	> 100000 nM
CC(C)CCN1CCC(Cc2cc(O)c(N3CC(=O)NS3(=O)=O)c(F)c2)C1 (configuration not stated)	8430 nM
CC(C)CCN1CCCC(Cc2cc(O)c(N3CC(=O)NS3(=O)=O)c(F)c2)C1 (configuration not stated)	> 100000 nM

biological target: T1, Tyrosine-protein phosphatase non-receptor type 2 (Homo sapiens, UniProt P17706); experiment: not given; conditions: not given
T1 sequence (P17706 whole entry): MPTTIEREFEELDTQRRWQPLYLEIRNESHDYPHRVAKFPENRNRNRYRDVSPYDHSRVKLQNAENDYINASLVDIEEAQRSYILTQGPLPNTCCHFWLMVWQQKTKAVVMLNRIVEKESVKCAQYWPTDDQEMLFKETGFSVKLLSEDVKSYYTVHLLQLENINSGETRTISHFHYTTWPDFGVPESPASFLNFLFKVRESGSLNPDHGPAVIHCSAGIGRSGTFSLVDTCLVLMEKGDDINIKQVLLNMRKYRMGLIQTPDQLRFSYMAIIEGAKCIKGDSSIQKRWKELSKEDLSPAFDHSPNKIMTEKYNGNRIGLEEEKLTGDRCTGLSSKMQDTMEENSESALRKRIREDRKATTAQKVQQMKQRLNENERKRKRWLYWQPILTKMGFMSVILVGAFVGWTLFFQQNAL

IC50	Structure (SMILES)
5290 nM	O=C1SN(CCN2CCN(Cc3ccc4c(c3)OCO4)CC2)CN1Cc1ccccc1
< 1000 nM	CC(C)CCc1ccc2cc(O)c(N3CC(=O)NS3(=O)=O)cc2n1
> 1000 nM	CC(C)CCn1ccc2cc(O)c(N3CC(=O)NS3(=O)=O)c(F)c2c1=O
280 nM	CCN1CN(Cc2ccc(F)cc2)C(=O)S1
1510 nM	O=C1SN(CCOc2ccc([N+](=O)[O-])cc2)CN1Cc1ccccc1
330 nM	CCN1CN(Cc2ccc(Cl)cc2)C(=O)S1
< 1000 nM	CC(C)CCn1ccc(-c2ccc(O)c(N3CC(=O)NS3(=O)=O)c2F)n1
< 1000 nM	CC(C)CCn1cc(-c2ccc(O)c(N3CC(=O)NS3(=O)=O)c2F)cn1
> 10000 nM	CC(C)CCc1ccc2ccc(N3CC(=O)NS3(=O)=O)cc2n1
370 nM	CCN1CN(Cc2ccc(I)cc2)C(=O)S1
> 10000 nM	CC(C)CCn1cnc2cc(O)c(N3CC(=O)NS3(=O)=O)c(F)c2c1=O
10000 nM	CC1(C)CCC(NCc2ccc(O)c(N3CC(=O)NS3(=O)=O)c2F)CC1
1910 nM	O=C1CN(c2c(O)cc3c(c2F)CNCCC3)S(=O)(=O)N1
< 1000 nM	CC(C)CCOc1ccc2cc(O)c(N3CC(=O)NS3(=O)=O)c(F)c2n1
8770 nM	O=C(O)CN1CCN(CCN2CN(Cc3ccccc3)C(=O)S2)CC1
7100 nM	CC(C)N1CCN(CCN2CN(Cc3ccccc3)C(=O)S2)CC1
< 1000 nM	CC(C)CCn1ccc(-c2ccc(O)c(N3CC(=O)NS3(=O)=O)c2F)c1
< 1000 nM	CC(C)CCn1cnc(-c2ccc(O)c(N3CC(=O)NS3(=O)=O)c2F)c1
< 1000 nM	CC(C)CCc1ccc2cc(O)c(N3CC(=O)NS3(=O)=O)c(F)c2n1
< 1000 nM	CC(C)CCCc1cc2c(F)c(N3CC(=O)NS3(=O)=O)c(O)cc2n(C)c1=O
< 1000 nM	CC(C)CCn1cc(-c2ccc(O)c(N3CC(=O)NS3(=O)=O)c2F)nn1
520 nM	CCN1CN(Cc2ccc(Br)cc2)C(=O)S1
< 1000 nM	COc1ccc2cc(O)c(N3CC(=O)NS3(=O)=O)c(F)c2n1

Structure (SMILES)	IC50
CCN1CCc2cc(O)c(N3CC(=O)NS3(=O)=O)c(F)c2CC1C (configuration not stated)	212 nM
O=C1CN(c2c(O)cc3c(c2F)C[C@H](NCCC(F)F)CC3)S(=O)(=O)N1	1 nM
O=C1CN(c2c(O)cc3c(c2F)C[C@H](NCCCC(F)(F)F)CC3)S(=O)(=O)N1	1 nM
N[C@@H]1CCc2cc(O)c(N3CC(=O)NS3(=O)=O)c(F)c2CC1	5.67 nM
O=C1CN(c2c(O)cc(NC(=O)N[C@H](CO)c3ccccc3)cc2F)S(=O)(=O)N1 (racemic)	5 nM
CC(C)CCNC(=O)Nc1cc(O)c(N2CC(=O)NS2(=O)=O)c(F)c1	5 nM
CN(Cc1cc(O)c(N2CC(=O)NS2(=O)=O)c(F)c1)C1CCC(C)(C)CC1	50 nM

biological target: T1, Tyrosine-protein phosphatase non-receptor type 2; experiment: not given; conditions: not given; remark: another data set of the same source

Structure (SMILES)	Ki
Cc1cc(O)nc(Nc2cc(O)c(N3CC(=O)NS3(=O)=O)c(F)c2)n1	1 nM
CC1CCN=C(Nc2cc(O)c(N3CC(=O)NS3(=O)=O)c(F)c2)N1 (configuration not stated)	5 nM
Cc1cnc(Nc2cc(O)c(N3CC(=O)NS3(=O)=O)c(F)c2)nc1O	< 1 nM
CC(C)Cc1cnc(Nc2cc(O)c(N3CC(=O)NS3(=O)=O)c(F)c2)nc1O	< 1 nM
Cc1ccnc(Nc2cc(O)c(N3CC(=O)NS3(=O)=O)c(F)c2)n1	≥ 100 nM
O=C1CN(c2c(O)cc(NC3=NCCCN3)cc2F)S(=O)(=O)N1	5 nM
